According to patent US12022787B2, “Efficient monocot embryo extraction and preservation methods and novel uses thereof” (Wisconsin Alumni Research Foundation, priority 2019, dated 2024):

What was measured:
[1] = tested on: Barley shoot tips / mature embryo explants; assay: Multiple bud/shoot induction from barley mature embryo explants on bud induction media; assay type: in vivo; conditions: for multiple bud/shoot induction in barley shoot tips: relatively high amount of cytokinin to 2,4-D, 2 weeks
Experimental: To induce multiple buds/shoots from the leaf base of Barley shoot tips post co-culture, we applied medium with a high relative amount of cytokinin to auxin (measured by either concentration or relative activity). Explants were generally on these bud induction medium for a total of 2 weeks, after which presence of multiple buds/shoots was assessed (phenotype shown in FIG. 21, with data summarized in boxplot form in FIG. 22). […] In some experiments, after 1 week on induction media without selection, explants were transferred to induction media with selection. During this 2-week period explants were kept at 27 C 16/8 photoperiod. It may be possible to reduce chimerism in T0 Barley plants by extending this shoot multiplication step to 4-8 weeks.(9)
We followed this experiment up examining removal of 2,4-D from the bud induction phase, as well as its replacement with either picloram or fipexide.

[2] = tested on: LH244 maize iVAEs (immature embryos, 20 DAP); assay: Glyphosate sensitivity (selection titer) of dried, frozen, rehydrated maize iVAEs on Regeneration II medium; assay type: in vivo
Experimental: Maize iVAEs (Immature Value-Added Explants) were prepared following the methods outlined below, and viability and glyphosate sensitivity of the dried, stored embryos were tested. These iVAEs were incubated for four days in a drying chamber with MgNO3 saturated salts and then stored at s −20° C. These frozen iVAEs were later pulled from storage and used to determine process survival as well as used in an experiment to determine sensitivity to the herbicide glyphosate (Millipore Sigma Glyphosate “N-(Phosphonomethyl) glycine”; Cat #337757-5G) for future use as a selection agent for these novel explants.
Post Storage Rehydration Method of the iVAE embryos: Dried maize embryos (iVAEs) were placed on a sterile plate of Regeneration Medium II) and incubated at room temperature for 1 hour. Afterward, sterile water was added and embryos were incubated at room temperature for an additional hour followed by gentile agitation to complete the rehydration process. Embryos were then placed on experimental media to determine survival as well as sensitivity to glyphosate. The rehydrated maize iVAEs were placed on media plates, evenly spaced, and each plate was sealed with porous tissue culture tape and incubated in growth chamber at 26° C. with 16/8 light/dark photoperiod with 60 μmol m-2 s-1. For up to 56 days of observation.
20 DAP LH244 ears were collected from self-pollinated plants in the greenhouse. The embryos were extracted using the iVAE protocol. The extracted and cleaned embryos were placed in a drying chamber with MgNO3 saturated salts for 4 days. LH244 embryos were frozen for 4 days, or until used, at −20° C. in a hermetically closed 50 mL Falcon tube
LH244 embryos were rehydrated as described in Example 9. Following rehydration, plates were set up using Regeneration II Medium. The first replicate has 30 embryos per plate, and the second only 22 per plate. The measurements are standardized to the number of surviving embryos, as measured by the number of embryos displaying coleoptile elongation. A subset of embryos was tested for viability using tetrazolium chloride (TTC).
We analyzed this experiment by counting the percent germination, looking at stress phenotype and using the viability stain tetrazolium chloride (TTC). In general, during germination, green tissue is healthy, purple tissue is stressed and producing anthocyanins, and silver or white tissue is not producing chlorophyll.

c1ccc(CNc2ncnc3nc[nH]c23)cc1 [BAP, 6-benzylaminopurine]
multiple bud/shoot induction in barley shoot tips [1]: could induce multiple buds/shoots

O=C(Nc1ccccc1)Nc1cnns1 [TDZ, thidiazuron]
explant phenotype after 2 weeks on bud induction media ([1]; 3 ppm TDZ, 1 ppm 2,4-D): multiple shooting/budding phenotype | multiple bud/shoot induction in barley shoot tips [1]: could induce multiple buds/shoots

O=C(COc1ccc(Cl)cc1)N1CCN(Cc2ccc3c(c2)OCO3)CC1 [fipexide]
explant health versus controls ([1]; 3 ppm TDZ, 10 ppm fipexide): looked healthier than controls on 2,4-D media | explant phenotype after 2 weeks on bud induction media ([1]; 3 ppm TDZ, 10 ppm fipexide): multiple shooting/budding phenotype | explant phenotype after 2 weeks on bud induction media ([1]; 10 ppm fipexide, TDZ removed): germinating phenotype | explant phenotype after 2 weeks on bud induction media ([1]; 100 ppm fipexide): explant sensitivity

O=C(O)CNCP(=O)(O)O [glyphosate, N-(Phosphonomethyl) glycine]
damage (loss of greening shoots) ([2]; 10 μM glyphosate treatment plates, at 27 days): 90% | reduction in frequency of greening shoots (impairment) ([2]; 50 μM glyphosate treatment plates, 10 days after start): about 80% | glyphosate concentration giving apparent reduction of anthocyanins synthesis ([2]; after 49 days): ≥ 100 µM | anthocyanin production in treated embryos ([2]; in response to glyphosate): significant anthocyanin production
